In the supplement of paper PMC10307832:

These cell lines were tested with CN1CCN(CC1)C2=CC(=C(C=C2)NC3=NC(=C(S3)C(=O)C4=C(C=CC=C4Cl)Cl)N)OC [XMD14-99] + O=C(CCCCCCC(=O)Nc1ccccc1)NO [Vorinostat] (partner 1 µM) (assay: relative viability (nuclei count vs DMSO), 5 days (fraction); higher = more cells survive). Conditions: first compound 2.53 µM.
How it was run: (§1)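 After 5 days of treatment, lung cancer cells in 1536-well plates were fixed and stained in a single step (final 0.05% Triton X-100, 1% formaldehyde, 1 ug/ml Hoechst) and their nuclei counted on 4× images. Treatment had been applied by pin tool the day after seeding as one drug alone or as a fixed anchor-drug dose with five library-drug doses (not always all listed) in √10 steps. Relative viability is the nuclei count of treated wells divided by that of vehicle wells, and values are medians of duplicate plates.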
Cell Line NCI-H3122 has a relative viability of 0.923.
In the case of HOP-62, the relative viability was 0.661.
For HCC-44, the relative viability was 1.13.
For SW 900, the relative viability was 0.489.
Cell Line LU99A has a relative viability of 0.444.
In the case of BEN, the relative viability was 0.595.
With HARA the relative viability was 0.369.
Cell Line NCI-H1648 has a relative viability of 0.437.
With HCC-78 the relative viability was 0.369.
For NCI-H441, the relative viability was 0.745.
With LCLC-97TM1 the relative viability was 0.604.
Cell Line NCI-H2023 has a relative viability of 0.732.
In the case of A-427, the relative viability was 0.689.

Same assay, conditions: first compound 8 µM
NCI-H522 showed a relative viability of 0.956.
Work on NCI-H838 yielded a relative viability of 0.414.
In the case of NCI-H1650, the relative viability was 0.427.
With NCI-H2009 the relative viability was 0.423.
NCI-H1993 was tested, and the relative viability was 0.714.
For PC-14, the relative viability was 0.285.
With LCLC-103H the relative viability was 0.664.
With NCI-H596 the relative viability was 0.536.
With NCI-H2228 the relative viability was 0.33.
Cell Line EMC-BAC-2 has a relative viability of 0.199.
NCI-H2087 was tested, and the relative viability was 0.449.
For HCC-366, the relative viability was 0.218.
Work on NCI-H1666 yielded a relative viability of 0.895.
NCI-H647 gave a relative viability of 0.582.
With LK-2 the relative viability was 0.462.
Cell Line NCI-H2126 has a relative viability of 0.579.
With NCI-H2342 the relative viability was 0.989.
Work on SK-MES-1 yielded a relative viability of 0.657.
In the case of H3255, the relative viability was 0.591.
COR-L23 gave a relative viability of 0.181.
Work on COR-L 105 yielded a relative viability of 0.663.
Work on IA-LM yielded a relative viability of 0.515.
In the case of LOU-NH91, the relative viability was 0.725.
Cell Line ChaGo-K-1 has a relative viability of 0.719.
NCI-H2170 was tested, and the relative viability was 0.609.
NCI-H3122 showed a relative viability of 0.707.
Cell Line HOP-62 has a relative viability of 0.441.
Cell Line HCC-44 has a relative viability of 1.04.
In the case of SW 900, the relative viability was 0.432.
In the case of LU99A, the relative viability was 0.37.
Cell Line BEN has a relative viability of 0.522.
HARA showed a relative viability of 0.397.
NCI-H1648 was tested, and the relative viability was 0.395.
In the case of HCC-78, the relative viability was 0.382.
NCI-H441 gave a relative viability of 0.681.
LCLC-97TM1 showed a relative viability of 0.315.
In the case of NCI-H2023, the relative viability was 0.363.
A-427 was tested, and the relative viability was 0.612.

Each cell line was assayed with N[C@@H]1CCCN(c2c(/C=C3\SC(=O)NC3=O)cccc2-c2ccccc2)C1 [AZD1208] + Cc1cc(Nc2cc(N3CCN(C)CC3)nc(Sc3ccc(NC(=O)C4CC4)cc3)n2)n[nH]1 [Tozasertib] (partner 0.1 µM) in the same assay as above. Conditions: first compound 0.08 µM.
How it was run: as §1
NCI-H522 showed a relative viability of 0.534.
Work on NCI-H1623 yielded a relative viability of 0.456.
NCI-H838 was tested, and the relative viability was 0.277.
Work on NCI-H1650 yielded a relative viability of 0.423.
Cell Line NCI-H2009 has a relative viability of 0.696.
Cell Line NCI-H1993 has a relative viability of 0.667.
With PC-14 the relative viability was 0.554.
LCLC-103H gave a relative viability of 0.51.
Work on NCI-H596 yielded a relative viability of 0.896.
Work on NCI-H2228 yielded a relative viability of 0.258.
EMC-BAC-2 showed a relative viability of 0.28.
NCI-H2087 showed a relative viability of 0.245.
In the case of HCC-366, the relative viability was 0.118.
NCI-H1666 gave a relative viability of 0.535.
In the case of NCI-H647, the relative viability was 0.239.
LK-2 gave a relative viability of 0.157.
Cell Line NCI-H2126 has a relative viability of 0.743.
NCI-H2342 was tested, and the relative viability was 0.454.
Work on SK-MES-1 yielded a relative viability of 1.
H3255 was tested, and the relative viability was 0.664.
In the case of COR-L23, the relative viability was 0.152.
With COR-L 105 the relative viability was 0.35.
Work on LOU-NH91 yielded a relative viability of 0.711.
For ChaGo-K-1, the relative viability was 0.216.
NCI-H2170 gave a relative viability of 0.718.
With NCI-H3122 the relative viability was 0.402.
In the case of HOP-62, the relative viability was 0.372.
Cell Line HCC-44 has a relative viability of 0.876.
SW 900 gave a relative viability of 0.535.
